Results published in publication PMC12142043, “Cell-based high-content approach for SARS-CoV-2 neutralization identifies unique monoclonal antibodies and PI3K pathway inhibitors” (Frontiers in Cell and Developmental Biology, 2025).

System: SARS-CoV-2 (USA-WA1/2020) in Calu-3 cells
Type: cell-based
Conditions: Calu-3, 48 h; for dsRNA signal, AU High: high dose (10 µM); for dsRNA signal, AU Low: low dose (100 nM)

Compound | dsRNA signal, AU High | dsRNA signal, AU Low
Cn1cnc2c(F)c(Nc3ccc(Br)cc3Cl)c(C(=O)NOCCO)cc21 [AZD6244 (Selumetinib)] | 7299.3 AU | 3732.5 AU
C[C@@H]1COCCN1c1cc(C2([S@](C)(=N)=O)CC2)nc(-c2cc[nH]c3nccc2-3)n1 [AZD6738] | 290.6 AU | 16844.7 AU
COc1ccc(-c2ccc3c(N4CCOC[C@@H]4C)nc(N4CCOC[C@@H]4C)nc3n2)cc1CO [AZD8055] | 0.0 AU | 39910.8 AU
C[C@@H](Nc1cc(F)cc(F)c1)c1cc(C(=O)N(C)C)cc2c(=O)cc(N3CCOCC3)oc12 [AZD8186] | 4769.3 AU | 35908.0 AU
Cc1cc(C(=O)NOCCO)c(Nc2ccc(I)cc2F)n(C)c1=O [AZD8330] | 29149.3 AU | 63631.5 AU
COc1cc(N2CCC(N)CC2)ccc1Nc1ncc(Cl)c(-c2c[nH]c3ccccc23)n1 [AZD-3463] | 9390.1 AU | 40804.7 AU
Cc1ncc(-c2ccnc(Nc3ccc(S(C)(=O)=O)cc3)n2)n1C(C)C [AZD-5438] | 10643.7 AU | 32871.5 AU
CN(C)C/C=C/C(=O)Nc1cc2c(Nc3ccc(F)c(Cl)c3)ncnc2cc1O[C@H]1CCOC1 [Afatinib (BIBW2992)] | 1924.8 AU | 12314.4 AU
CN(C)C/C=C/C(=O)Nc1cc2c(Nc3ccc(F)c(Cl)c3)ncnc2cc1O[C@H]1CCOC1 [Afatinib dimaleate] | 15371.8 AU | 40279.2 AU
O=C(Nc1cc(Oc2cc(F)c(NC(=O)C3(C(=O)Nc4ccc(F)cc4)CC3)cc2F)ccn1)C1CC1 [Altiratinib] | 7645.1 AU | 34585.3 AU
CC(C)c1ccc2oc3nc(N)c(C(=O)O)cc3c(=O)c2c1 [Amlexanox] | 17956.6 AU | 28672.3 AU
S=C(NCc1ccc2c(c1)OCO2)N1CCN(c2ncnc3c2oc2ccccc23)CC1 [Amuvatinib (MP-470, HPK 56)] | 6649.7 AU | 32179.3 AU
COc1ccc(C[C@H]2NC[C@H](O)[C@H]2OC(C)=O)cc1 [Anisomycin] | 20082.7 AU | 2629.3 AU
N#CC1(c2ccc(NC(=O)c3cccnc3NCc3ccncc3)cc2)CCCC1 [Apatinib] | 181.1 AU | 36614.7 AU
O=c1cc(-c2ccc(O)cc2)oc2cc(O)cc(O)c12 [Apigenin] | 1738.8 AU | 15810.5 AU
C[C@@H]1CC[C@H]2[C@@H](C)C(=O)O[C@@H]3O[C@@]4(C)CC[C@@H]1[C@]32OO4 [Artemisinine] | 2826.9 AU | 35035.3 AU
O=C(Nc1cccc(Nc2nccc(Nc3cccc(C(F)(F)F)c3)n2)c1)C1CC1 [Aurora Kinase Inhibitor III] | 2378.0 AU | 11511.4 AU
CNC(=O)c1ccccc1Sc1ccc2c(/C=C/c3ccccn3)n[nH]c2c1 [Axitinib (AG 013736)] | 42600.6 AU | 65444.2 AU
CCN1CCN(c2ccc(Nc3cc(N(C)C(=O)Nc4c(Cl)c(OC)cc(OC)c4Cl)ncn3)cc2)CC1 [BGJ398] | 24356.1 AU | 22673.4 AU

Compound | dsRNA signal, AU High | dsRNA signal, AU Low
CC[C@@H]1C(=O)N(C)c2cnc(Nc3ccc(C(=O)NC4CCN(C)CC4)cc3OC)nc2N1C1CCCC1 [BI 2536] | 34739.4 AU | 58236.8 AU
Cc1ccc(-n2nc(C(C)(C)C)cc2NC(=O)Nc2ccc(OCCN3CCOCC3)c3ccccc23)cc1 [BIRB 796 (Doramapimod)] | 8315.3 AU | 13140.6 AU
CN(C)Cc1cccc(N/C(=C2\C(=O)Nc3cc(C(N)=O)ccc32)c2ccccc2)c1 [BIX 02188] | 40230.6 AU | 23376.7 AU
NC(=O)c1ccc2nc(-c3ccc(Oc4ccc(Cl)cc4)cc3)[nH]c2c1 [BML-277] | 33021.5 AU | 13488.9 AU
Cc1ccc2nc(NCCN)c3ncc(C)n3c2c1.Cl [BMS345541 hydrochloride] | 0.0 AU | 5872.9 AU
CCCNC(=O)c1cn2ncnc(Nc3cc(C(=O)NC4CC4)ccc3C)c2c1C.Cl [BMS-582949 hydrochloride] | 7441.1 AU | 64364.9 AU
CCOc1ccn(-c2ccc(F)cc2)c(=O)c1C(=O)Nc1ccc(Oc2ccnc(N)c2Cl)c(F)c1 [BMS-777607] | 39539.6 AU | 18689.6 AU
CCn1c(C(=O)N(C2CC2)C2CC2)cc2c3c(ncn3C)c(Nc3cc(C)n(C)n3)nc21 [BMS-911543] | 18362.9 AU | 16684.7 AU
C=CC(=O)Nc1cc(-n2c(=O)ccc3cnc4ccc(-c5ccc(NS(C)(=O)=O)cc5)cc4c32)ccc1C [BMX-IN-1] | 37737.5 AU | 26747.2 AU
Cc1ccc(NC(=O)c2ccc(CN3CC[C@H](N(C)C)C3)c(C(F)(F)F)c2)cc1Nc1nccc(-c2cncnc2)n1 [Bafetinib (INNO-406)] | 1113.6 AU | 32473.2 AU
CCN(CCO)CCCOc1ccc2c(Nc3cc(CC(=O)Nc4cccc(F)c4)[nH]n3)ncnc2c1 [Barasertib (AZD1152-HQPA)] | 48647.4 AU | 41038.0 AU
CCS(=O)(=O)N1CC(CC#N)(n2cc(-c3ncnc4[nH]ccc34)cn2)C1 [Baricitinib (LY3009104, INCB028050)] | 27614.1 AU | 24279.2 AU
CCS(=O)(=O)N1CC(CC#N)(n2cc(-c3ncnc4[nH]ccc34)cn2)C1 [Baricitinib phosphate] | 2518.9 AU | 32442.1 AU
CC(C)(C)c1ccc(S(=O)(=O)/C=C/C#N)cc1 [Bay 11-7085] | 63723.6 AU | 21705.2 AU
O=C(O)CCC(=O)Nc1ccc(Br)cn1 [Bikinin] | 39833.6 AU | 44813.6 AU
COc1ccc(-c2coc3cc(O)cc(O)c3c2=O)cc1 [Biochanin A] | 14982.3 AU | 21751.5 AU
COc1cc(Nc2c(C#N)cnc3cc(OCCCN4CCN(C)CC4)c(OC)cc23)c(Cl)cc1Cl [Bosutinib (SKI-606)] | 38090.7 AU | 42027.4 AU
CCOc1ccc(Nc2ccc(/C(=C3C=C/C(=[N+](/CC)Cc4cccc(S(=O)(=O)[O-])c4)C=C/3C)c3ccc(N(CC)Cc4cccc(S(=O)(=O)O)c4)cc3C)cc2)cc1 [Brilliant Blue G] | 11949.6 AU | 31753.4 AU
Cc1cc2c(F)c(Oc3ncnn4cc(OC[C@@H](C)O)c(C)c34)ccc2[nH]1 [Brivanib (BMS-540215)] | 51042.4 AU | 684.7 AU

Compound | dsRNA signal, AU High | dsRNA signal, AU Low
O=C(/C=C/c1ccc(O)c(O)c1)c1ccc(O)cc1O [Butein] | 38311.3 AU | 14009.4 AU
CCN1C(=O)CNc2ncc(-c3ccc(-c4nc[nH]n4)nc3C)nc21 [CC-115] | 5666.1 AU | 44138.8 AU
CO[C@H]1CC[C@H](N2C(=O)CNc3ncc(-c4ccc(C(C)(C)O)nc4)nc32)CC1 [CC-223] | 6587.4 AU | 41988.9 AU
NC1(Cc2ccc(Cl)cc2)CCN(c2ncnc3[nH]ccc23)CC1 [CCT128930] | 1507.6 AU | 9152.4 AU
Cc1cc(CN2CCN(c3c(Br)cnc4nc(-c5ccc(N6CCN(C)CC6)cc5)[nH]c34)CC2)no1 [CCT137690] | 0.0 AU | 46657.6 AU
CN1CCN(c2cccc(Nc3nc4c(-c5ccc(S(C)(=O)=O)cc5)cccn4n3)c2)CC1 [CEP-33779] | 12244.2 AU | 3458.4 AU
Cc1c(NC(=O)c2ccc(C(C)(C)C)cc2)cccc1-c1cn(C)c(=O)c(Nc2ccc(C(=O)N3CCOCC3)cc2)n1 [CGI-1746] | 34116.6 AU | 18368.1 AU
Nc1ncnc2n[nH]c(Nc3ccc(F)cc3)c12 [CGP 57380] | 1947.6 AU | 33084.2 AU
O=c1[nH]c2ccc(Cl)cc2c(N[C@@H]2CN3CCC2CC3)c1-c1nc2ccccc2[nH]1 [CHIR-124] | 9794.1 AU | 2244.6 AU
Cc1cnc(-c2cnc(NCCNc3ccc(C#N)cn3)nc2-c2ccc(Cl)cc2Cl)[nH]1 [CHIR-99021 (CT99021)] | 62333.9 AU | 10204.7 AU
O=C1NCCCc2c1oc1ccc(O)cc21 [CID 755673] | 9033.3 AU | 7582.1 AU
O=C(Nc1ccc(CN2CCOCC2)cc1)c1ccc(-c2cccc(Cl)c2)o1 [CID 2011756] | 3490.5 AU | 12424.4 AU
C=CC(=O)Nc1cccc(Nc2nc(Nc3ccc(N4CCN(C(C)=O)CC4)cc3OC)ncc2C(F)(F)F)c1 [CO-1686 (AVL-301)] | 16434.5 AU | 26200.1 AU
Cn1cc(C2=C(c3cccc(N)c3)C(=O)NC2=O)c2ccccc21 [CP21R7] | 5189.9 AU | 2975.5 AU
COc1cc2ncnc(-n3nc(-c4ccccn4)nc3N)c2cc1OC [CP-466722] | 23326.1 AU | 24439.1 AU
COCCOc1ccc2c(c1)ncn2-c1ccc2cccc(N3CCC(N)CC3)c2n1 [CP-673451] | 14720.6 AU | 4566.7 AU
COCC(=O)NC/C=C/c1ccc2ncnc(Nc3ccc(Oc4ccc(C)nc4)c(C)c3)c2c1 [CP-724714] | 1118.3 AU | 29983.8 AU
O=C(O)CCCCC(CCSCc1ccccc1)SCc1ccccc1 (stereo not shown) [CPI-613] | 36.8 AU | 25399.4 AU
